Results taken from patent publication US12357652B2, “Formulations of phosphoramidate derivatives of nucleoside drugs” (priority 2015, dated 2025).
Where two headings read alike, the source gives them in different places.

Legend:
[1] = Stability of NUC-3373 aqueous infusion solution in 250 ml 0.9% saline bags; assay type: physicochemical
Experimental: The stability of the aqueous infusion solution was also evaluated using three different doses of NUC-3373 (1,000 mg, 2,000 mg and 3,000 mg) diluted in 250 ml 0.9% saline bags at two storage conditions (5° C. and 20° C.).

cancer models = conditions: versus 5-fluorouracil; cited from earlier work
[2] = versus 5-FU; cited from earlier work
[3] = Solubility of NUC-3373 in a range of pharmaceutically relevant solvents; assay type: physicochemical
Source text: The solubility of NUC-3373 (mixture of diastereoisomers) in a range of solvents is shown in […]

[4] = 1,000 mg NUC-3373 in 250 ml 0.9% saline infusion bag, 0 hours, 5° C.
[5] = 1,000 mg NUC-3373 in 250 ml 0.9% saline infusion bag, 0 hours, 20° C.
[6] = 1,000 mg NUC-3373 in 250 ml 0.9% saline infusion bag, 8 hours, 5° C.
[7] = 1,000 mg NUC-3373 in 250 ml 0.9% saline infusion bag, 8 hours, 20° C.
[8] = 1,000 mg NUC-3373 in 250 ml 0.9% saline infusion bag, 24 hours, 5° C.
[9] = 1,000 mg NUC-3373 in 250 ml 0.9% saline infusion bag, 24 hours, 20° C.
[10] = 1,000 mg NUC-3373 in 250 ml 0.9% saline infusion bag, 48 hours, 5° C.
[11] = 1,000 mg NUC-3373 in 250 ml 0.9% saline infusion bag, 48 hours, 20° C.
[12] = 2,000 mg NUC-3373 in 250 ml 0.9% saline infusion bag, 0 hours, 5° C.
[13] = 2,000 mg NUC-3373 in 250 ml 0.9% saline infusion bag, 0 hours, 20° C.
[14] = 2,000 mg NUC-3373 in 250 ml 0.9% saline infusion bag, 8 hours, 5° C.
[15] = 2,000 mg NUC-3373 in 250 ml 0.9% saline infusion bag, 8 hours, 20° C.
[16] = 2,000 mg NUC-3373 in 250 ml 0.9% saline infusion bag, 24 hours, 5° C.
[17] = 2,000 mg NUC-3373 in 250 ml 0.9% saline infusion bag, 24 hours, 20° C.
[18] = 2,000 mg NUC-3373 in 250 ml 0.9% saline infusion bag, 48 hours, 5° C.
[19] = 2,000 mg NUC-3373 in 250 ml 0.9% saline infusion bag, 48 hours, 20° C.
[20] = 3,000 mg NUC-3373 in 250 ml 0.9% saline infusion bag, 0 hours, 5° C.
[21] = 3,000 mg NUC-3373 in 250 ml 0.9% saline infusion bag, 0 hours, 20° C.
[22] = 3,000 mg NUC-3373 in 250 ml 0.9% saline infusion bag, 8 hours, 5° C.
[23] = 3,000 mg NUC-3373 in 250 ml 0.9% saline infusion bag, 8 hours, 20° C.
[24] = 3,000 mg NUC-3373 in 250 ml 0.9% saline infusion bag, 24 hours, 5° C.
[25] = 3,000 mg NUC-3373 in 250 ml 0.9% saline infusion bag, 24 hours, 20° C.
[26] = 3,000 mg NUC-3373 in 250 ml 0.9% saline infusion bag, 48 hours, 5° C.
[27] = 3,000 mg NUC-3373 in 250 ml 0.9% saline infusion bag, 48 hours, 20° C.

With `C[C@H](NP(=O)(OC[C@H]1O[C@@H](n2cc(F)c(=O)[nH]c2=O)CC1O)Oc1cccc2ccccc12)C(=O)OCc1ccccc1` (stereo partly drawn) [NUC-3373, 5-fluoro-2′-deoxyuridine-5′-O-[1-naphthyl (benzoxy-L-alaninyl)] phosphate] the “Assay content NUC-3373” value [1, 4] was 3.7 mg/mL, the Osmolarity [1, 4] was 457 mosm/L H20 and the Purity [1, 4] was 96.2 % area. For the same compound, the “Total NUC-3373” value [1, 4] was 960.9 mg, the pH [1, 4] was 5.5 and the “Assay content NUC-3373” value [1, 5] was 3.9 mg/mL. The Osmolarity [1, 5] was 462 mosm/L H20, the Purity [1, 5] was 96.1 % area and the “Total NUC-3373” value [1, 5] was 1012.8 mg. For the same compound, the pH [1, 5] was 5.6, the “Assay content NUC-3373” value [1, 6] was 3.6 mg/mL and the Osmolarity [1, 6] was 450 mosm/L H20. For the same compound, the Purity [1, 6] was 96.1 % area, the “Total NUC-3373” value [1, 6] was 934.9 mg and the pH [1, 6] was 5.6. For the same compound, the “Assay content NUC-3373” value [1, 7] was 3.7 mg/mL, the Osmolarity [1, 7] was 459 mosm/L H20 and the Purity [1, 7] was 96.1 % area. The “Total NUC-3373” value [1, 7] was 960.9 mg, the pH [1, 7] was 5.5 and the “Assay content NUC-3373” value [1, 8] was 3.6 mg/mL. The Osmolarity [1, 8] was 456 mosm/L H20, the Purity [1, 8] was 96.1 % area and the “Total NUC-3373” value [1, 8] was 934.9 mg. For the same compound, the pH [1, 8] was 5.6, the “Assay content NUC-3373” value [1, 9] was 3.7 mg/mL and the Osmolarity [1, 9] was 462 mosm/L H20. The Purity [1, 9] was 96.1 % area, the “Total NUC-3373” value [1, 9] was 960.9 mg and the pH [1, 9] was 5.8. For the same compound, the “Assay content NUC-3373” value [1, 10] was 3.6 mg/mL, the Osmolarity [1, 10] was 451 mosm/L H20 and the Purity [1, 10] was 96.2 % area. The “Total NUC-3373” value [1, 10] was 934.9 mg, the pH [1, 10] was 5.5 and the “Assay content NUC-3373” value [1, 11] was 3.8 mg/mL. For the same compound, the Osmolarity [1, 11] was 455 mosm/L H20, the Purity [1, 11] was 96.1 % area and the “Total NUC-3373” value [1, 11] was 986.9 mg. The pH [1, 11] was 5.5, the “Assay content NUC-3373” value [1, 12] was 7.2 mg/mL and the Osmolarity [1, 12] was 639 mosm/L H20. The Purity [1, 12] was 96.1 % area, the “Total NUC-3373” value [1, 12] was 1946 mg and the pH [1, 12] was 5.5. The “Assay content NUC-3373” value [1, 13] was 7.4 mg/mL, the Osmolarity [1, 13] was 646 mosm/L H20 and the Purity [1, 13] was 96.1 % area. The “Total NUC-3373” value [1, 13] was 2000 mg, the pH [1, 13] was 5.5 and the “Assay content NUC-3373” value [1, 14] was 7.0 mg/mL. The Osmolarity [1, 14] was 637 mosm/L H20, the Purity [1, 14] was 96.2 % area and the “Total NUC-3373” value [1, 14] was 1892 mg. The pH [1, 14] was 5.5, the “Assay content NUC-3373” value [1, 15] was 7.5 mg/mL and the Osmolarity [1, 15] was 633 mosm/L H20. The Purity [1, 15] was 96.1 % area, the “Total NUC-3373” value [1, 15] was 2027 mg and the pH [1, 15] was 5.5. For the same compound, the “Assay content NUC-3373” value [1, 16] was 6.9 mg/mL, the Osmolarity [1, 16] was 638 mosm/L H20 and the Purity [1, 16] was 96.1 % area. The “Total NUC-3373” value [1, 16] was 1865 mg, the pH [1, 16] was 5.5 and the “Assay content NUC-3373” value [1, 17] was 7.2 mg/mL. The Osmolarity [1, 17] was 639 mosm/L H20, the Purity [1, 17] was 96.1 % area and the “Total NUC-3373” value [1, 17] was 1946 mg. For the same compound, the pH [1, 17] was 5.5, the “Assay content NUC-3373” value [1, 18] was 7.0 mg/mL and the Osmolarity [1, 18] was 635 mosm/L H20. The Purity [1, 18] was 96.1 % area, the “Total NUC-3373” value [1, 18] was 1892 mg and the pH [1, 18] was 5.4. For the same compound, the “Assay content NUC-3373” value [1, 19] was 7.1 mg/mL, the Osmolarity [1, 19] was 632 mosm/L H20 and the Purity [1, 19] was 96.1 % area. For the same compound, the “Total NUC-3373” value [1, 19] was 1919 mg, the pH [1, 19] was 5.4 and the “Assay content NUC-3373” value [1, 20] was 10.2 mg/mL. The Osmolarity [1, 20] was 831 mosm/L H20, the Purity [1, 20] was 96.1 % area and the “Total NUC-3373” value [1, 20] was 2857 mg. For the same compound, the pH [1, 20] was 5.5, the “Assay content NUC-3373” value [1, 21] was 10.4 mg/mL and the Osmolarity [1, 21] was 818 mosm/L H20. The Purity [1, 21] was 96.1 % area, the “Total NUC-3373” value [1, 21] was 2913 mg and the pH [1, 21] was 5.5. For the same compound, the “Assay content NUC-3373” value [1, 22] was 10.4 mg/mL, the Osmolarity [1, 22] was 823 mosm/L H20 and the Purity [1, 22] was 96.2 % area. The “Total NUC-3373” value [1, 22] was 2913 mg, the pH [1, 22] was 5.5 and the “Assay content NUC-3373” value [1, 23] was 10.5 mg/mL. The Osmolarity [1, 23] was 812 mosm/L H20, the Purity [1, 23] was 96.1 % area and the “Total NUC-3373” value [1, 23] was 2941 mg. The pH [1, 23] was 5.5, the “Assay content NUC-3373” value [1, 24] was 10.1 mg/mL and the Osmolarity [1, 24] was 825 mosm/L H20. The Purity [1, 24] was 96.1 % area, the “Total NUC-3373” value [1, 24] was 2829 mg and the pH [1, 24] was 5.5. The “Assay content NUC-3373” value [1, 25] was 10.4 mg/mL, the Osmolarity [1, 25] was 817 mosm/L H20 and the Purity [1, 25] was 96.1 % area. The “Total NUC-3373” value [1, 25] was 2913 mg, the pH [1, 25] was 5.5 and the “Assay content NUC-3373” value [1, 26] was 10.0 mg/mL. For the same compound, the Osmolarity [1, 26] was 821 mosm/L H20, the Purity [1, 26] was 96.2 % area and the “Total NUC-3373” value [1, 26] was 2801 mg. For the same compound, the pH [1, 26] was 5.6, the “Assay content NUC-3373” value [1, 27] was 10.1 mg/mL and the Osmolarity [1, 27] was 812 mosm/L H20. The Purity [1, 27] was 96.1 % area, the “Total NUC-3373” value [1, 27] was 2829 mg and the pH [1, 27] was 5.4. For the same compound, the Stability ([1]; aqueous infusion solutions at all dose strengths (1,000 mg, 2,000 mg, 3,000 mg in 250 ml 0.9% saline), up to 48 hours at 5° C. and 20° C.) was “stable”, the Activity in vitro (cancer models) was “outstanding and far superior to the results obtained with 5-fluorouracil” and the Tolerability [2] was “significantly better tolerated than 5-FU”. It also gave a Solubility ([3]; DMA, organic solvent or mixture, read-out: Solubility) of 950 mg/mL, a Solubility ([3]; DMSO, organic solvent or mixture, read-out: Solubility) of 948 mg/mL and a Solubility ([3]; NMP, organic solvent or mixture, read-out: Solubility) of 705 mg/mL. For the same compound, the Solubility ([3]; PEG 400, organic solvent or mixture, read-out: Solubility) was 422 mg/mL, the Solubility ([3]; Water) was “extremely low” and the Solubility ([3]; ethanol, organic solvent or mixture, read-out: Solubility) was 778 mg/mL. For the same compound, the Solubility ([3]; propylene glycol, organic solvent or mixture, read-out: Solubility) was 449 mg/mL and the Solubility ([3]; water, read-out: Solubility) was under 2 mg/mL.
